Data published in ChEMBL document CHEMBL5465560, “Selectivity Literature for EUbOPEN Chemogenomic Library” (2024).
Positions count from the first letter of the chain named.

Columns and labels:
[1] = biological target: T1, Serine/threonine-protein kinase Sgk2 (Homo sapiens) (UniProt Q9HBY8); assay: Selectivity interaction (KinomeScan (DiscoverX)) EUB0000695a SGK2; conditions: at 100 nM
T1 sequence (whole entry): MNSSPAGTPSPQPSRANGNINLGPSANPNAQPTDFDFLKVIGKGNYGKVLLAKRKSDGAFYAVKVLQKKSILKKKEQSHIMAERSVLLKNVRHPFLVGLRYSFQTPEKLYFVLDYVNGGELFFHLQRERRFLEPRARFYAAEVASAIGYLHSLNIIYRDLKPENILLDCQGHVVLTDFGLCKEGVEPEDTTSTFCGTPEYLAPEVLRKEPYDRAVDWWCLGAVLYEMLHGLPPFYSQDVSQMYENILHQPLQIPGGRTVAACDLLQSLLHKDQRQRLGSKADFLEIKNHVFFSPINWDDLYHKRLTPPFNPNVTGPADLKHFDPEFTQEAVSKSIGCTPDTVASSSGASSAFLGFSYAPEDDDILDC

[2] = system: T2, Receptor-type tyrosine-protein kinase FLT3 (Homo sapiens), P36888 [K663Q]; assay: (§1) Selectivity interaction (KinomeScan (DiscoverX)) EUB0001079a FLT3; conditions: at 1 µM
T2 sequence (whole entry): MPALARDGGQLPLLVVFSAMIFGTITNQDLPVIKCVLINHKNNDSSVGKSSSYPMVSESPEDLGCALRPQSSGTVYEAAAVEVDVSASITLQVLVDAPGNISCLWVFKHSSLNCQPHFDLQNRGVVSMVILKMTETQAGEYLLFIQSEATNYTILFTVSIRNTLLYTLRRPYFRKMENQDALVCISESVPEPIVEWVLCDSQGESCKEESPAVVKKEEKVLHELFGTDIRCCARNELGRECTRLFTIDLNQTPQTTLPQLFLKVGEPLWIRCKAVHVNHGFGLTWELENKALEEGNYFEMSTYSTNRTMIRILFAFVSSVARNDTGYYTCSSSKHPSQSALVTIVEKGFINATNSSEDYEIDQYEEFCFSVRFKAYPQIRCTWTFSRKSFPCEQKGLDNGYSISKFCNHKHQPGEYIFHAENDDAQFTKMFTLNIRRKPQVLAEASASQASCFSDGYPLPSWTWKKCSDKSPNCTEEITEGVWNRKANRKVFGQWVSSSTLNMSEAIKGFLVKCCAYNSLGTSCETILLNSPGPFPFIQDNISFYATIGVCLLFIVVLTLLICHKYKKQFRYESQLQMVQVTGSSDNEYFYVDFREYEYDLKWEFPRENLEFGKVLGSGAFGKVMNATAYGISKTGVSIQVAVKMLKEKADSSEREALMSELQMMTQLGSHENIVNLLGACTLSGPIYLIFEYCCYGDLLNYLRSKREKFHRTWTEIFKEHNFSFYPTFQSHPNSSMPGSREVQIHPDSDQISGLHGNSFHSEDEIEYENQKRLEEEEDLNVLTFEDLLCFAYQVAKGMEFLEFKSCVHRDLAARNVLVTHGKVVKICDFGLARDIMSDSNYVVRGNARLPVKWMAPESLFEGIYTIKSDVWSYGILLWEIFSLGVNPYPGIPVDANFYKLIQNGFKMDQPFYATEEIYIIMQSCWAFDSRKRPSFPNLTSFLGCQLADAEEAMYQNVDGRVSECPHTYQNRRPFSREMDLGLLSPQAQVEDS

[3] = system: T3, Receptor-type tyrosine-protein kinase FLT3 (Homo sapiens), P36888 [N841I]; assay: as §1; conditions: at 1 µM
T3 sequence (whole entry): T2 sequence (whole entry) with Q663K, N841I

[4] = system: Epidermal growth factor receptor (Homo sapiens), P00533 [L861Q]; assay: (§2) Selectivity interaction (KinomeScan (DiscoverX)) EUB0001049a EGFR; conditions: at 1 µM
[5] = system: Epidermal growth factor receptor (Homo sapiens), P00533 [UNDEFINED MUTATION]; assay: as §2; conditions: at 1 µM
[6] = system: Epidermal growth factor receptor (Homo sapiens), P00533 [G719C]; assay: as §2; conditions: at 1 µM
[7] = system: Epidermal growth factor receptor (Homo sapiens), P00533 [T790M]; assay: as §2; conditions: at 1 µM
[8] = system: Epidermal growth factor receptor (Homo sapiens), P00533 [L858R,T790M]; assay: as §2; conditions: at 1 µM
[9] = system: Epidermal growth factor receptor (Homo sapiens), P00533 [L858R]; assay: as §2; conditions: at 1 µM
[10] = biological target: Epidermal growth factor receptor (Homo sapiens, UniProt P00533); assay: as §2; conditions: at 1 µM
[11] = system: Epidermal growth factor receptor (Homo sapiens), P00533 [G719S]; assay: as §2; conditions: at 1 µM
[12] = biological target: Receptor tyrosine-protein kinase erbB-4 (Homo sapiens, UniProt Q15303); assay: Selectivity interaction (Upstate Kinase Profiler service (Millipore)) EUB0000056c ERBB4; conditions: at 1 µM
[13] = biological target: 5-hydroxytryptamine receptor 1B (Homo sapiens) (UniProt P28222); assay: Selectivity interaction (Panel of kinases, GPCRs, ion channels and transporters (enzymatic assay)) EUB0000266bCl HTR1B
[14] = biological target: Phosphatidylinositol 4-phosphate 5-kinase type-1 alpha (Homo sapiens) (UniProt Q99755); assay: Selectivity interaction (KinomeScan (DiscoverX)) EUB0000092b PIP5K1A; conditions: at 10 µM

Epidermal growth factor receptor (Homo sapiens), P00533 [UNDEFINED MUTATION], sequence (P00533 whole entry, looked up, stated change not applied): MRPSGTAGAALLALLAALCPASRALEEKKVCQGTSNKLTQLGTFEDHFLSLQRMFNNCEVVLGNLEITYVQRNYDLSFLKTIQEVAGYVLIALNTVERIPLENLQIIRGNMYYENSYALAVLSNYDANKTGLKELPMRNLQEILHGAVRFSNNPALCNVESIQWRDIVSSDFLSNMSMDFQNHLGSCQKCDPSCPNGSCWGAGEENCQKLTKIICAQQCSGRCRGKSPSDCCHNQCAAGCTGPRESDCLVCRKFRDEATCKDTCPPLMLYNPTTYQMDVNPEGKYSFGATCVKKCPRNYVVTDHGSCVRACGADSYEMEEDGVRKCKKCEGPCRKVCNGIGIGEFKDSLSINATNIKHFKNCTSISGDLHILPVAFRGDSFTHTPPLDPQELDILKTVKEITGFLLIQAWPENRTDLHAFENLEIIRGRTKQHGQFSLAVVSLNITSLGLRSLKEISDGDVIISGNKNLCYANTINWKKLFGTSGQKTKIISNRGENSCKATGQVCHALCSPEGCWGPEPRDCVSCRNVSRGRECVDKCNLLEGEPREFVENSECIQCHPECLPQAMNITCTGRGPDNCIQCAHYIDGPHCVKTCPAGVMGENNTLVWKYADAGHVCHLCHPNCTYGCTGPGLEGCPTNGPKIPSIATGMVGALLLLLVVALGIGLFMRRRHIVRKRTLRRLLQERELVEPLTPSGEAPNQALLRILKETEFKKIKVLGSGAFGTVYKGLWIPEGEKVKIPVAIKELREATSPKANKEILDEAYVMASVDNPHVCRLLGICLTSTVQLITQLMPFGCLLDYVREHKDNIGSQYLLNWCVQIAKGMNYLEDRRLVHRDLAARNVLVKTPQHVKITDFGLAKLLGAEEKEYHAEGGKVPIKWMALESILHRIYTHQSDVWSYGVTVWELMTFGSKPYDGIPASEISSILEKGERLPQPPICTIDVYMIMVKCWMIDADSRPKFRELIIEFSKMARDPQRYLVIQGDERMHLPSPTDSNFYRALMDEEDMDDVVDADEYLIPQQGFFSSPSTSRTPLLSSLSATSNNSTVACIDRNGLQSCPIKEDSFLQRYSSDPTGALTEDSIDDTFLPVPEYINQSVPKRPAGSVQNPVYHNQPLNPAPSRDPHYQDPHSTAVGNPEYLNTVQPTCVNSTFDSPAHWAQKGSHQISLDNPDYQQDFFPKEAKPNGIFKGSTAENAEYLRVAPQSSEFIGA
Epidermal growth factor receptor, sequence (P00533 whole entry): as the sequence (P00533 whole entry, looked up, stated change not applied) above
Receptor tyrosine-protein kinase erbB-4, sequence (Q15303 whole entry): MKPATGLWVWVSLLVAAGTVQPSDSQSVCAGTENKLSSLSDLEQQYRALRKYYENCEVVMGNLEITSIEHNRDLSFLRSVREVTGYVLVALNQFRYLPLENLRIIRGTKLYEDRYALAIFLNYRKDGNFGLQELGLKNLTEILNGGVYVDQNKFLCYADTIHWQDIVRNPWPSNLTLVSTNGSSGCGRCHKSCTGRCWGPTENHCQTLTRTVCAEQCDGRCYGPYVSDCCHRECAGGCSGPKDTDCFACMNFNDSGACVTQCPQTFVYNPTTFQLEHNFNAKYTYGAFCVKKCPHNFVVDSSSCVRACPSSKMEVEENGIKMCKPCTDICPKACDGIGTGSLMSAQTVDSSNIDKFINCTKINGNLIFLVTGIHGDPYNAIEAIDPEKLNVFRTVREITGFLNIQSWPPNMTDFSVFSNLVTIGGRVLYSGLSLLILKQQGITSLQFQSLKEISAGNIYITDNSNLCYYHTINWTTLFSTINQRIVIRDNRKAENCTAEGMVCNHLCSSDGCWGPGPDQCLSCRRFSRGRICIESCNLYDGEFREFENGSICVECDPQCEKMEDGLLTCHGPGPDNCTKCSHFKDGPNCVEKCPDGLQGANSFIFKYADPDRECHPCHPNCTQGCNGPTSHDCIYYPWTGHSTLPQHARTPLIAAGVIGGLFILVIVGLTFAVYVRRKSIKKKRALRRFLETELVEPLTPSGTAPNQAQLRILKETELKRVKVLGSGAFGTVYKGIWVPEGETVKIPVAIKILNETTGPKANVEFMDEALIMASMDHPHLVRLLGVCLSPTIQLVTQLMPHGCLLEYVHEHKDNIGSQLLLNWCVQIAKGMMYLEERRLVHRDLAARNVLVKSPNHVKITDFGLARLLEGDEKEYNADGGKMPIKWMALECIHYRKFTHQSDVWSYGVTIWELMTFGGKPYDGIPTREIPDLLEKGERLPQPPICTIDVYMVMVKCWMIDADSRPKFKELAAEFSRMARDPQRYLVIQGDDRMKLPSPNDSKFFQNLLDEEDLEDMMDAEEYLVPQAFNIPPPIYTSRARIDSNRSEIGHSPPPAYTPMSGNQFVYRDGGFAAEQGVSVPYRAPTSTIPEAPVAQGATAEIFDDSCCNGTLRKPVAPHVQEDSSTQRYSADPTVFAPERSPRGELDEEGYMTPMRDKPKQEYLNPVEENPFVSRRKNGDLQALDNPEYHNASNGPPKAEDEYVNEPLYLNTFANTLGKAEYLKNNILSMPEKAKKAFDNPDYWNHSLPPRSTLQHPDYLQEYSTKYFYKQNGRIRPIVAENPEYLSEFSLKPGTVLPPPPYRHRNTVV
Epidermal growth factor receptor (Homo sapiens), P00533 [G719S], sequence (P00533 whole entry G719S): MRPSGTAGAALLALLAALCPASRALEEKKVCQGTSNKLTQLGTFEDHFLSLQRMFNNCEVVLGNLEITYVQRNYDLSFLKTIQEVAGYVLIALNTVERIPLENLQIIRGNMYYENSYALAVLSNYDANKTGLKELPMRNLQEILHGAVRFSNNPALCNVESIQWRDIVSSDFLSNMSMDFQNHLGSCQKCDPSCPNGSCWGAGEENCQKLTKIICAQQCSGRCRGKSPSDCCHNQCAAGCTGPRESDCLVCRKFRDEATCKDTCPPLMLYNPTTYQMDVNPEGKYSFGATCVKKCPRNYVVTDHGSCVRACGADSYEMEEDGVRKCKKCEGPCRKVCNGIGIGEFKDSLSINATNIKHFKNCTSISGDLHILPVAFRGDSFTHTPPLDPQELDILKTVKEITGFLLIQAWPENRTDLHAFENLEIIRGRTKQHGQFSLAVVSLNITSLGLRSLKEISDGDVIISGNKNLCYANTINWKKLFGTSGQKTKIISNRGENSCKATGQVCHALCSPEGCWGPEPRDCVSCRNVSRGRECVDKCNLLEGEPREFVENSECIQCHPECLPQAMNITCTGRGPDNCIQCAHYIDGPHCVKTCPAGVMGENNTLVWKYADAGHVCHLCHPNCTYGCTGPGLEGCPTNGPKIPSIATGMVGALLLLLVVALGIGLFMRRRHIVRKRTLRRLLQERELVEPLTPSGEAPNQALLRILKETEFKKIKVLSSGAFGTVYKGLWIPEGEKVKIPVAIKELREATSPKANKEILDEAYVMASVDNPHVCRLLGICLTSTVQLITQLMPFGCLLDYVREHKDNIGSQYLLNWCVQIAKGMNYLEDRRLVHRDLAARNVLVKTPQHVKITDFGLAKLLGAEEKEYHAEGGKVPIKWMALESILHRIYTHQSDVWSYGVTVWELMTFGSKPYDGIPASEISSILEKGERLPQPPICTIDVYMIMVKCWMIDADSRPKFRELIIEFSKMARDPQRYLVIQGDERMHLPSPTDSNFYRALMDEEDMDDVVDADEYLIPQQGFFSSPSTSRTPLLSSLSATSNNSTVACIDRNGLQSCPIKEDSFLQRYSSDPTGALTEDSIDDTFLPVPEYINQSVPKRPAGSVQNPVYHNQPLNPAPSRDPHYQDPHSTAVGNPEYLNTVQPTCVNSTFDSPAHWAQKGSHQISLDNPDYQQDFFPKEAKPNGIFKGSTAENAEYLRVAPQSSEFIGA

## Cc1cc(F)c(C(=O)Nc2cccc(-c3nncn3C(C)C)n2)cc1-n1cnc(C2CC2)c1
[1]
  % of control: 100%

## Nc1cnc(N2CCc3cc(S(=O)(=O)Nc4c(F)cc(Cl)cc4F)cc(N4CCCC4=O)c32)nc1 [TP-020n]
[2]
  % of control: 97%
[3]
  % of control: 89%

## COc1cc(Nc2nc(C)cc(-c3cnn4nc(OC)ccc34)n2)cc(C(F)(F)F)c1
[4]
  % of control: 100%
[5]
  % of control: 100%
[6]
  % of control: 100%
[7]
  % of control: 93%
[8]
  % of control: 68%
[9]
  % of control: 89%
[10]
  % of control: 95%
[11]
  % of control: 94%

## Cc1ccc(-c2ccc3c(ccc4sc5c(c43)NC[C@@H](C)NC5=O)n2)cn1
[12]
  % of inhibition: 12%

## CCn1c(-c2nc3cc(C(=O)N4CCCC(N)C4)ccc3n2C)cc2ccccc21 (centres undefined)
[13]
  pXC50: < 4.5 M

## CCC(=O)N1CCN(c2ccc(-n3c(=O)ccc4cnc5ccc(-c6cnc7ccccc7c6)cc5c43)cc2C(F)(F)F)CC1
[14]
  % of control: 89%
